Like-named read-outs stand apart in the source and are kept apart here.
How the values were obtained:
[1] = test system: CHO cells, permeabilized by treatment with lysolecithin; test: Polymerase substrate function in permeabilized cells
streptavidin = streptavidin (Streptomyces avidinii, UniProt P22629); conditions: affinity of streptavidin for biotin; cited from earlier work
avidin = avidin (Gallus gallus, UniProt P02701); conditions: cited from earlier work
Streptavidin-Sepharose = Streptavidin-Sepharose (Streptomyces avidinii, UniProt P22629)
Chain of Streptavidin-Sepharose (P22629 25-183): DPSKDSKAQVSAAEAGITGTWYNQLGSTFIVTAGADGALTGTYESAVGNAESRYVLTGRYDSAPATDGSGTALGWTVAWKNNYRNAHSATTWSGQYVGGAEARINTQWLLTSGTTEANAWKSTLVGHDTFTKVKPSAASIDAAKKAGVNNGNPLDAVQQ
Text: Its preparation and purification is described in Hoffman, et al., Proc. Natl. Acad. Sci., 77, 4666 (1980).

Chain of avidin (P02701 25-152): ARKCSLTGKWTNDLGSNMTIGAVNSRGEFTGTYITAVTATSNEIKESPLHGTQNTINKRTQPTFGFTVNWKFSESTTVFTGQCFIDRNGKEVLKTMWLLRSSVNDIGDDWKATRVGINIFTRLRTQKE
Chain of streptavidin (P22629 25-183): as the sequence (P22629 25-183) above

In the case of `O=C(CCCCC1SCC2NC(=O)NC21)NC/C=C/c1cn(C2CC(O)C(COP(=O)(O)OP(=O)(O)OP(=O)(O)O)O2)c(=O)[nH]c1=O` (stereo not shown) [Bio-dUTP, biotinyl-dUTP], the polymerase substrate function [1] is reported as “function as a polymerase substrate”.

For `O=C(O)CCCC[C@@H]1SC[C@@H]2NC(=O)N[C@@H]21` [biotin], the Kassn (streptavidin) is given as 10^15.

For `N=C1N[C@H]2[C@H](CS[C@H]2CCCCC(=O)O)N1` [iminobiotin], the “binding to avidin relative to biotin” value (avidin) is given as “less tightly than biotin”.

In the case of Iminobiotinyl-dUTP [^3H-IB-dUTP], the “% Retained on SA-Sepharose” value (Streptavidin-Sepharose; Load - 10 mM Tris-HCl, 8.3, 50 mM NaCl) is reported as 100%, the “% Retained on SA-Sepharose” value (Streptavidin-Sepharose; eluent (1) 0.1 M NaCl) is reported as 100% and the “% Retained on SA-Sepharose” value (Streptavidin-Sepharose; eluent (2) 1.0 M NaCl) is reported as 100%. The “% Retained on SA-Sepharose” value (Streptavidin-Sepharose; eluent (3) 8 M Urea) was 97.5%, the “% Retained on SA-Sepharose” value (Streptavidin-Sepharose; eluent (4) 6 M guanidine-HCl) was 97.0% and the “% Retained on SA-Sepharose” value (Streptavidin-Sepharose; eluent (5) 50 mM NH4-acetate, pH 4.0) was less than 0.01%. The “% Retained on SA-Sepharose” value (Streptavidin-Sepharose; eluent (6) 50 mM NH4-acetate, pH 4.0 2 mM biotin) was less than 0.01%.

— EP0329198B1, “Base modified oligo- and polynucleotides and methods of preparing and using same” (priority 1981, dated 1982)
